Experimental data: US11407792B2, “Regulating electron flow using fragmented proteins” (WILLIAM MARSH RICE UNIVERSITY, priority 2017, dated 2022)

What was measured:
sFd-35-ER = assay: Complementation of E. coli EW11 growth by sFd-35-ER with 4-HT and other estrogen receptor modulators; type: cell-based, Escherichia coli; details: for Activation of sFd-35-ER ET (growth complementation): agonists, antagonists and an endocrine disruptor; for Effect of estrogen receptor modulators on complementation of E. coli EW11 by sFd-35-ER, compared to DMSO alone: modulator 50 μM, 200 ng/mL aTc
Method: Growth assay. For all growth experiments, E. coli EW11 were freshly transformed with two plasmids, one encoding the e-donor and acceptor pair (FNR and SIR) and the other encoding either a native Fd, a C42A mutant of Ml Fd that is unable to coordinate a 2Fe-2S cluster, or an engineered Fd. Starter cultures were inoculated using single colonies obtained by selecting for colonies containing both plasmids on LB-agar plates. These starter cultures were grown in deep-well 96-well plates for 18 hours at 37° C. in 1 mL of a non-selective modified M9 medium (M9c), which contained sodium phosphate, dibasic (6.8 g/L), sodium phosphate, monobasic (3 g/L), sodium chloride (0.5 g/L), ammonium chloride (1 g/L), calcium chloride (0.1 mM), magnesium sulfate (10 mM), ferric citrate (24 mg/L), p-aminobenzoic acid (2 mg/L), inositol (20 mg/L), adenine (5 mg/L), uracil (20 mg/L), tryptophan (40 mg/L), tyrosine (1.2 mg/L), and the remaining 18 amino acids (80 mg/L each). For auxotroph complementation analysis, starter cultures that had been grown to stationary phase in M9c were diluted ˜1:100 using a 96-well replicator pin into 100 μL of a selective modified M9 medium (M9sa), which is identical to M9c but lacks cysteine and methionine. […] Optical density (OD) measurements were taken every 10 minutes. To select for the Fd and e-donor/acceptor plasmids, all growth steps included chloramphenicol and streptomycin at 34 μg/mL and 100 μg/mL, respectively.
To test whether this domain-insertion strategy can be used to diversify the chemical regulation of sFd-35, the ligand-binding domain (LBD) of the human estrogen receptor (ER) was inserted after residue 35 to create sFd-35-ER (FIG. 26E).
The activity of sFd-35-ER was evaluated by expressing this protein using an aTc-inducible promoter (FIG. 31B). […] This protein was also expressed as a fusion to RFP (sFd-35-ER-RFP) to evaluate how 4-HT affects protein expression.
To evaluate how these different modulators affect sFd-35-ER ET, sFd-35-ER growth complementation was evaluated in the presence of agonists, antagonists, and an endocrine disruptor (FIG. 32D).

E. coli EW11 = E. coli EW11 growth complementation by native, split or engineered Fds; type: cell-based, Escherichia coli; details: after 24 hours; Fd expressed from an aTc-inducible promoter, FNR and SIR constitutive
Method: Growth assay. […] Optical density (OD) measurements were taken every 10 minutes.
To rapidly assay ET mediated by engineered Fds, an Escherichia coli sulfide auxotroph (EW11; Barstow et al., 2011), which cannot grow in minimal medium containing sulfate as a sulfur source unless it expresses a synthetic ET chain consisting of a Fd-NADP+ reductase (FNR) electron donor, a Fd electron carrier, and a Fd-dependent sulfite reductase (SIR) electron acceptor, was used (FIG. 25A). Endogenous oxidoreductases were systematically removed from the genome of this strain to insulate Fd-dependent redox pathways from native redox reactions (Barstow et al., 2011). To evaluate Fd ET, Zea mays FNR and SIR were constitutively expressed and a TetR-repressible promoter was used to control the expression of plant-type 2Fe-2S Fds. […]
With this expression strategy, the inventors can quickly assess which split Fds require two fragments to function in complementation assays by assessing growth in the presence and absence of both inducers because growth depended upon the level of anhydrotetracycline (aTc) (FIG. 25B), and thus, the amount of Fd available to mediate ET. […] For these experiments, they assessed split Fd function in the presence of a constant high concentration of aTc, and varying concentrations of IPTG, which selectively drive the distinct promoters. […]

[1] = Midpoint potentials by protein film (square wave) voltammetry; type: physicochemical; details: relative to standard hydrogen electrode, pH 7.0, 23.5° C.
Method: Midpoint potentials. Electrochemical experiments were carried out anaerobically in a MBraun Labmaster glovebox using a PGSTAT12 potentiostat. A three-electrode configuration was used in a water-jacketed glass cell. A platinum wire was used as the counter electrode and a standard calomel electrode was used as the reference electrode. Reported potentials are relative to the standard hydrogen electrode. Baseline measurements were collected using an edge-plane graphite (EPG) electrode that was modified with a 100 mM neomycin trisulfate solution, rinsed, and placed into a glass cell containing a 23.5° C. mixed buffer solution (5 mM acetate/MES/MOPS/TAPS/CHES/CAPS) pH 7.0, with 100 mM NaCl. A 5 μL aliquot of 720 μM Ml-Fd or 5 mM sFd-35-ER was applied directly to the electrode surface with or without 1 μL of 50 mM 4-HT, the protein was allowed to […] for approximately one minute at room temperature before being placed into the buffer cell solution. Square wave voltammograms were collected at 23.5° C. with a frequency of 10 Hz and electrochemical signals were analyzed using QSoas.
To investigate if domain insertion affects the reduction potential of Ml-Fd, Ml-Fd and sFd-35-ER were characterized using protein film voltammetry. In the absence of 4-HT, the midpoint potentials of both Ml-Fd and sFd-35-ER (FIG. 27C) were −336 and −320 mV, respectively. […]

[2] = tested on: lysates derived from E. coli EW11 expressing FNR and SIR; assay: Sulfide production assay in cell lysates (sulfidefluor-7 fluorescence); type: biochemical, Escherichia coli; details: y=0.7×+12.252, r^2=0.983
Method: Cell lysates. Electrocompetent E. coli EW11 were transformed with the plasmid (pSAC01) that constitutively expresses Zea mays FNR and SIR. Cells were grown to stationary phase at 37° C. and 250 rpm in 2×YTPG medium (16 g/L tryptone, 10 g/L yeast extract, 5 g/L NaCl, 3 g/L KH2PO4, 7 g/L K2HPO4, and 18 g/L glucose) containing 100 μg/mL streptomycin. Cells from overnight cultures were diluted 1:100 in fresh 2×YTPG medium containing streptomycin, grown for 2 hours at 37° C. while shaking at 250 rpm until mid-log phase, and then shifted to 30° C. and grown for an additional 4 hours. […] Protein content in lysates was quantified using Bio-Rad Protein Assay Dye Reagent Concentrate (Bio-Rad), using bovine serum albumin (NEB) as a standard.
Sulfide production assay. […] Following NADPH or protein addition, reactions were arrayed in a Corning 96 well plate at room temperature (Cost ar #3603), transferred to an Infinite m1000 Pro plate reader (Tecan), and heated to 37° C. and shaken at 250 rpm with fluorescence readings (λex=495 nm, λem=520 nm) every 15 seconds. […]
SIR activity was monitored in desalted cell lysates using sulfidefluor-7 (Lin et al., 2013), a fluorescent probe for hydrogen sulfide. […]

[3] = Fish et al., 2005; cited from earlier work
[4] = Hirasawa et al., 2004; cited from earlier work

For CC(C)(c1ccc(O)cc1)c1ccc(O)cc1 [bisphenol-A], the “Activation of sFd-35-ER ET (growth complementation)” value (shortened to “Activation of sFd-35-ER ET”) (sFd-35-ER) was “activated” and the “Effect of estrogen receptor modulators on complementation of E. coli EW11 by sFd-35-ER, compared to DMSO alone” value (from here on “Effect … compared to DMSO alone”) (sFd-35-ER) was “significantly enhance growth”.

In the case of CC[C@H](c1ccc(O)cc1)[C@@H](CC)c1ccc(O)cc1 [hexestrol], the “Activation of sFd-35-ER ET” value (sFd-35-ER) is reported as “not activated” and the “Effect … compared to DMSO alone” value (sFd-35-ER) is reported as “do not significantly enhance growth”.

With Oc1ccc2c(c1)CC[C@H](c1ccccc1)[C@@H]2c1ccc(OCCN2CCCC2)cc1 [lasoxifene] the “Activation of sFd-35-ER ET” value (sFd-35-ER) was “activated” and the “Effect … compared to DMSO alone” value (sFd-35-ER) was “significantly enhance growth”.

With “Ml-Fd: Thermostable plant-type 2Fe-2S ferredoxin of Mastigocladus laminosus, UniProt P00248, SEQ ID NO: 11” the “k1/2, growth complementation as a function of aTc” value (E. coli EW11) was 1.8 ng/mL aTc, the midpoint potential ([1]; absence of 4-HT) was −336 mV and the midpoint potential ([1]; presence of 4-HT) was −330 mV. For the same molecule, the “rate of SF7 fluorescence with increasing concentrations of Ml-Fd” value [2] was “linearly increasing rate” and the “temperature of optimal ET” value [3] was 65 °C.

B1: SIR: Zea mays Fd-dependent sulfite reductase, electron acceptor (protein, UniProt O23813 51-635, looked up)
Sulfite reductase …: VSAPAKKDASEVKRSKVEIIKEKSNFLRYPLNEELVSEAPNINESAVQLIKFHGSYQQTDRDVRGQKNYSFMLRTKNPCGKVPNQLYLAMDTLADEFGIGTLRLTTRQTFQLHGVLKKNLKTVLSTVIKNMGSTLGACGDLNRNVLAPAAPYVKKDILFAQQTAENIAALLTPQSGAYYDLWVDGEKIMSAEEPPEVTKARNDNSHGTNFPDSPEPIYGTQYLPRKFKVAVTAAGDNSVDILTNDIGVVVVSDDAGEPIGFNIYVGGGMGRTHRVETTFPRLADPLGYVPKEDILYAIKAIVVTQRENGRRDDRKYSRMKYMIDRWGIDRFRAEVEKYYGKKFESFRPLPEWQFNSYLGWQEQGDGKLFYGVHVDNGRVGGQAKKTLREIIEKYNLDVSITPNQNLILCGIDQAWREPITTALAQAGLLEPKDVDPLNLTAMACPALPLCPLAQTEAERGILPILKRIRAVFNKVGIKDSESVVVRITGCPNGCARPYMAELGFVGDGPKSYQIWLGGTPNQSTLAESFMDKVKLDDIEKVLEPLFTYWNGTRQEGESFGSFTNRTGFDKLKEVVNKWAESPSAA
For B1, the “[4Fe-4S] E°” value [4] is given as −415 mV and the siroheme potential [4] is given as −285 mV.
